{
  "source": "patent US20250250582A1",
  "about": "“Plant Cells and Plants Modified to Increase Herbicide Resistance and Stress Tolerance and Methods of Using the Same” (The Board of Trustees of the University of Arkansas, priority 2018, published 2025)",
  "key": {"[1]": {"test_system": "ECO-R compared to ECO-S after herbicide treatment", "assay": "RNA-sequencing differential gene expression, ECO-R-T compared to ECO-S-T", "source_text": "(§1) Pure-line generated seed of each accession were germinated in pots containing potting soil within a temperature/light controlled growth chamber set to a 14-hr day length, 33 C day temperature, and 24 C night time to simulate environmental conditions early in the rice growing season. A single plant was maintained in each of the pots and used for the treatments; two pots were used as individual biological replicates. […] Pots for each of the respective treatments were labeled as either ECO-R/S-T for the treated samples and ECO-R/S-N for the non-treated counterpart. To minimize the effect that the sprayer may play in the application, both plants of the ECO-R and ECO-S were treated at the same time. After approximately 30 minutes, allowing for the plants to dry, the treated and non-treated plants of both accessions were moved back into the growth chamber. Precisely 24-hours after application, the aboveground portion of each of the plants were removed and immediately frozen in liquid nitrogen to cease all biological function. Samples were then transferred to RNAlater™-ICE (Invitrogen, Carlsbad CA, USA) for shipment to the Clemson University Genomics Institute (CUGI), in Clemson, South Carolina.\n(§2) RNA was extracted from the young leaf tissues of both replications for the ECO-R and ECO-S, T and N samples, at Clemson University. Total RNA was extracted with a kit according to the manufactures instructions. The extracted RNA was treated with DNase (Invitrogen, Calsbad, CA, USA) to remove any DNA contamination prior to further processing. The samples were prepared for sequencing by CUGI. For library preparation, the TruSeq Stranded Total RNA kit (Illumina Inc., San Diego, CA, USA) was used according to the instructions provided by the manufacturer to produce a paired-end library for sequencing. Ribosomal RNA was removed using target-specific oligonucleotides paired with rRNA removal beads, removing all cytoplasmic and mitochondrial rRNA that may result in poor quality results. RNA was fragmented and reverse transcribed to cDNA using random primers, followed by a second strand cDNA synthesis. Each fragment is then ligated with an additional ‘A’ and an adapter for sequencing. The PCR enriched product is then used to create the final cDNA library. All samples were sequenced on an Illumina Hiseq 2500 platform housed in the Holdings Cancer Center at the Medical University of South Carolina, Charleston, SC, USA. Samples, regardless of treatments or replication were ran across three lanes to reduce sequencing errors from the equipment. The resulting data were processed by CUGI.\n(§3) A de novo transcriptome was assembled from the treatments described for this experiment as well as several treatments, which included herbicides profiled in ECO-R. The treatments were applied to both ECO-R and ECO-S samples with two replications as described previously. In total, 20 individual plants, from both the ECO-R and ECO-S accessions, as well as T and NT samples, were used for the assembly. The transcriptome was assembled using the Trinity RNA-Seq pipeline (Broad Institute, Cambridge, MA, USA). Raw data were assessed for quality using FastQC (Babraham Institute, Cambridge, UK) and then processed to remove adapter sequences and low quality bases using a sliding window method. The processed data were then rerun using FastQC to ensure high quality reads. Using the TrinityRNASeq 2.2.0 software, the samples were normalized, by replication, using a coverage size of 100 and kmer of 32. The normalized reads were then assembled as transcripts and genes using Trinity with the stranded library set as the default."}, "[2]": {"test_system": "susceptible E. colona (ECO-S)", "assay": "RNA-sequencing differential gene expression, herbicide-treated vs nontreated ECO-S", "settings": "ECO-S-T vs ECO-S-N, 24 h", "source_text": "as §1, §2, §3"}, "[3]": {"test_system": "susceptible E. colona standard", "assay": "Determination of resistance level (visual injury), susceptible plants", "settings": "2 X dose, visual 3 wk after treatment"}, "[4]": {"test_system": "resistant Echinochloa species", "assay": "Determination of resistance level (visual injury), resistant accessions", "assay_type": "in vivo, E. colona and E. crus-galli", "settings": "visual 3 wk after treatment", "source_text": "The experiment was repeated once."}},
  "note": "“And” between values parts separate entries of the source, which are not always exact repeats. Identical values can stand only once.",
  "data": [
    {"compound": "CCC(=O)Nc1ccc(Cl)c(Cl)c1", "note": "[propanil]", "values": [
      {"measurement": "ABA 8′-hydroxylase 1 transcripts fold change", "setting": "[1]; ECO-R-T vs ECO-S-T, 24 h", "result": "< −6.5", "unit": "fold"},
      {"measurement": "ABA receptor PYL5 fold change", "setting": "[1]; ECO-R-T vs ECO-S-T, 24 h", "result": "−4.8", "unit": "fold"},
      {"measurement": "ABA receptor PYL8 fold change", "setting": "[1]; ECO-R-T vs ECO-S-T, 24 h", "result": "−3.7", "unit": "fold"},
      {"measurement": "ACC synthase fold change", "setting": "[1]; ECO-R-T vs ECO-S-T, 24 h", "result": 8.6, "unit": "fold"},
      {"measurement": "Beta-glucosidase 22 fold change", "setting": "[1]; ECO-R-T vs ECO-S-T, 24 h", "result": 5.9, "unit": "fold"},
      {"measurement": "CYP71A1 Fold Change", "setting": "[1]; ECO-R-T vs ECO-S-T, 24 h", "result": 3.6, "unit": "fold"},
      {"measurement": "CYP72A15 Fold Change", "setting": "[1]; ECO-R-T vs ECO-S-T, 24 h", "result": "6.6 fold and 11.3 fold"},
      {"measurement": "DNA-directed RNA polymerase 1 subunit RPA112 III fold change", "setting": "[1]; ECO-R-T vs ECO-S-T, 24 h", "result": 10.3, "unit": "fold"},
      {"measurement": "ERF4 fold change", "setting": "[1]; ECO-R-T vs ECO-S-T, 24 h", "result": 4.3, "unit": "fold"},
      {"measurement": "ERF7 fold change", "setting": "[1]; ECO-R-T vs ECO-S-T, 24 h", "result": 8, "unit": "fold"},
      {"measurement": "ERF11 fold change", "setting": "[1]; ECO-R-T vs ECO-S-T, 24 h", "result": 3.4, "unit": "fold"},
      {"measurement": "GST1 fold change", "setting": "[1]; ECO-R-T vs ECO-S-T, 24 h", "result": 3.9, "unit": "fold"},
      {"measurement": "GST4 fold change", "setting": "[1]; ECO-R-T vs ECO-S-T, 24 h", "result": "> 5.3", "unit": "fold"},
      {"measurement": "GSTU17 fold change", "setting": "[1]; ECO-R-T vs ECO-S-T, 24 h", "result": 10.9, "unit": "fold"},
      {"measurement": "UGT73D1 fold change", "setting": "[1]; ECO-R-T vs ECO-S-T, 24 h", "result": 7.3, "unit": "fold"},
      {"measurement": "UGT88A1 Fold Change", "setting": "[1]; ECO-R-T vs ECO-S-T, 24 h", "result": 3.2, "unit": "fold"},
      {"measurement": "UGT88F3 fold change", "setting": "[1]; ECO-R-T vs ECO-S-T, 24 h", "result": 5.9, "unit": "fold"},
      {"measurement": "ferredoxin-6 fold change", "setting": "[1]; ECO-R-T vs ECO-S-T, 24 h", "result": "−6.5", "unit": "fold"},
      {"measurement": "nitrate reductase fold change", "setting": "[1]; ECO-R-T vs ECO-S-T, 24 h", "result": "< −6", "unit": "fold"},
      {"measurement": "nitrate transporters fold change", "setting": "[1]; ECO-R-T vs ECO-S-T, 24 h", "result": "< −4", "unit": "fold"},
      {"measurement": "polymerase III subunit 2 fold change", "setting": "[1]; ECO-R-T vs ECO-S-T, 24 h", "result": 10.8, "unit": "fold"},
      {"measurement": "trehalose biosynthesis enzymes fold change", "setting": "[1]; ECO-R-T vs ECO-S-T, 24 h", "result": "< −3", "unit": "fold"},
      {"measurement": "Phosphoenolpyruvate carboxylase (PEPc) kinase 1 fold change", "setting": "[1]; in vivo", "result": "> 5", "unit": "fold"},
      {"measurement": "ABC transporter G family member 5 Fold Change", "setting": "[2]", "result": 2.8, "unit": "fold"},
      {"measurement": "ABC transporter G family member 42 Fold Change", "setting": "[2]", "result": 1.5, "unit": "fold"},
      {"measurement": "ACC synthase fold change", "setting": "[2]", "result": "−2.7", "unit": "fold"},
      {"measurement": "CYP71A1 Fold Change", "setting": "[2]", "result": 2.9, "unit": "fold"},
      {"measurement": "CYP71A21 Fold Change", "setting": "[2]", "result": 5.1, "unit": "fold"},
      {"measurement": "CYP71D7 Fold Change", "setting": "[2]", "result": 5.9, "unit": "fold"},
      {"measurement": "CYP94C1 Fold Change", "setting": "[2]", "result": "3.7 fold and 5.4 fold and 5.5 fold"},
      {"measurement": "CYP716B1 Fold Change", "setting": "[2]", "result": 3.0, "unit": "fold"},
      {"measurement": "GSTU1 Fold Change", "setting": "[2]", "result": "2.5 fold and 2.7 fold"},
      {"measurement": "GSTU6 Fold Change", "setting": "[2]", "result": "2.3 fold and 4.1 fold"},
      {"measurement": "Heparan-alpha-glucosaminide N-acetyltransferase Fold Change", "setting": "[2]", "result": 2.5, "unit": "fold"},
      {"measurement": "MSR-1 Fold Change", "setting": "[2]", "result": 2.1, "unit": "fold"},
      {"measurement": "MYB44 fold change", "setting": "[2]", "result": "> 3", "unit": "fold"},
      {"measurement": "MYC3 fold change", "setting": "[2]", "result": 3.4, "unit": "fold"},
      {"measurement": "Probable glutathione S-transferase Fold Change", "setting": "[2]", "result": 1.8, "unit": "fold"},
      {"measurement": "RGA2 fold change", "setting": "[2]", "result": "> 7.5", "unit": "fold"},
      {"measurement": "RGA3 fold change", "setting": "[2]", "result": 1.7, "unit": "fold"},
      {"measurement": "UGT73B4 Fold Change", "setting": "[2]", "result": "3.8 fold and 5.7 fold"},
      {"measurement": "UGT73C1 Fold Change", "setting": "[2]", "result": 3.1, "unit": "fold"},
      {"measurement": "UGT73C2 Fold Change", "setting": "[2]", "result": 3.3, "unit": "fold"},
      {"measurement": "UGT74D1 Fold Change", "setting": "[2]", "result": 2.2, "unit": "fold"},
      {"measurement": "UGT75C1 Fold Change", "setting": "[2]", "result": 2.9, "unit": "fold"},
      {"measurement": "Uncharacterized acetyltransferase At3g50280 Fold Change", "setting": "[2]", "result": "2.5 fold and 3.5 fold"},
      {"measurement": "multiple ACC oxidase genes fold change", "setting": "[2]", "result": "−1.8 to −2.2", "unit": "fold"},
      {"measurement": "phosphoenolypyruvate carboxylase fold change", "setting": "[2]", "result": "−2.1 to −3.4", "unit": "fold"},
      {"measurement": "pyruvate dehydrogenase fold change", "setting": "[2]", "result": "−5.6 to −6.2", "unit": "fold"},
      {"measurement": "sugar transporter ERD6-like 6 fold change", "setting": "[2]", "result": 2.3, "unit": "fold"},
      {"measurement": "DNA and RNA polymerase-related transcripts fold change", "setting": "[2]; repressed by as much as", "result": "≤ −8.7", "unit": "fold"},
      {"measurement": "ACCase and ACCase 2 fold change", "setting": "[2]; repressed up to", "result": "up to −6.9 fold"},
      {"measurement": "susceptible plants killed", "setting": "[3]", "result": 100, "unit": "%"},
      {"measurement": "injury of ECO187", "setting": "[4]; 2 X dose (4480 g ai/ha)", "result": 97, "unit": "%"},
      {"measurement": "injury of resistant Echinochloa species", "setting": "[4]; 2 X dose, propanil range excludes ECO187", "result": "27-57%"}
    ]}
  ]
}
